Data on two molecules can be found in patent US4818759A, “Treatment of disease” (priority 1987, dated 1989).

Each structure is given as a SMILES string. Where two headings read alike, the source gives them in different places.

This assay has as its system polyarthritis. In words: Rat adjuvant arthritis (Freund's adjuvant polyarthritis), global arthritic joint score. To be noted: po, 384 h, read-out: ED50 (dose that produced a 50% reduction of the average global arthritic joint score relative to a control group). It counts as in vivo, rats.

For `CC(=O)Oc1ccccc1C(=O)O` [Aspirin], the ED50 was 102 mg/kg. As to `COc1ccc(OC)c(Cc2cnc3nc(N)nc(N)c3c2C)c1` [2,4-diamino-5-methyl-6-(2,5-dimethoxybenzyl)pyrido[2,3-d]pyrimidine isethionate], the ED50 (rats, in ground meal diet for 14 days from day of sensitization with Freund's adjuvant, evaluated on 16th day after sensitization) was 19 mg/kg.
